Patent US20090215857A1 (Pfizer Products Inc., priority 2005, published 2009)
pKi: −log10 of the molar value. Where a name gives a salt, the structure may show the parent alone.

Tests used:
[1] = target: T1, human norepinephrine transporter (Homo sapiens, UniProt P23975); test: hNET receptor binding ([125I]-RTI-55 radioligand); settings: membranes of HEK-293 cells transfected with human norepinephrine transporter cDNA; 50 pM [125I]-RTI-55; IC50 converted by Cheng-Prusoff; read-out: NET Ki
T1 construct: expressed in transfected cells; host or cells: HEK-293
T1 sequence (P23975 whole entry): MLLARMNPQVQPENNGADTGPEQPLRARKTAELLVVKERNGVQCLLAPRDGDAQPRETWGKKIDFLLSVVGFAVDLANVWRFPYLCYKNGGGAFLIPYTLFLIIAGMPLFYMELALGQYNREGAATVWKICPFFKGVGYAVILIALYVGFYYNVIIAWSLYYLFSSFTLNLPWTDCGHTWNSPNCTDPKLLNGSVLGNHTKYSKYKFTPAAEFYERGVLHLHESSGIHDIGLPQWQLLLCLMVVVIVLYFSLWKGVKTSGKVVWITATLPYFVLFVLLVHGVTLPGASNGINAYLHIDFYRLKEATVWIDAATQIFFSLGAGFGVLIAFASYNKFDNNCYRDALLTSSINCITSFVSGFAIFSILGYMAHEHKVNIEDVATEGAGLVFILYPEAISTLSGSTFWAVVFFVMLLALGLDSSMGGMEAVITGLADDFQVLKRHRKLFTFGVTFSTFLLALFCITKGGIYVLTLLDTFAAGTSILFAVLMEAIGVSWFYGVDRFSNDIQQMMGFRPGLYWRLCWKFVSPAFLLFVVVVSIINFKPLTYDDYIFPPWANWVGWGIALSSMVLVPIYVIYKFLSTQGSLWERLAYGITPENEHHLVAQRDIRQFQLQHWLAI
Method: (§1) Cell pastes of HEK-293 cells transfected with a human norepinephrine transporter cDNA were prepared. The cell pastes were resuspended in 400 to 700 ml of Krebs-HEPES assay buffer (25 mM HEPES, 122 mM NaCl, 3 mM KCl, 1.2 mM MgSO4, 1.3 mM CaCl2, and 11 mM glucose, pH 7.4) with a Polytron homogenizer at setting 7 for 30 seconds. Aliquots of membranes (5 mg/ml protein) were stored in liquid nitrogen until used.
The binding assay was set up in Beckman deep-well polypropylene plates with a total volume of 250 μl containing: test compound (10^−5M to 10^−12M), cell membranes, and 50 pM [^125I]-RTI-55 (Perkin Elmer, NEX-272; specific activity 2200 Ci/mmol). The reaction was incubated by gentle agitation for 90 minutes at room temperature and was terminated by filtration through Whatman GF/C filter plates using a Brandel 96-well plate harvester. Scintillation fluid (100 μl) was added to each well, and bound [^125I]-RTI-55 was determined using a Wallac Trilux Beta Plate Counter. Test compounds were run in duplicate, and specific binding was defined as the difference between binding in the presence and absence of 10 μM desipramine.
Excel and GraphPad Prism software were used for data calculation and analysis. IC50 values were converted to K, values using the Cheng-Prusoff equation.

[2] = target: T2, human serotonin transporter (Homo sapiens, UniProt P31645); test: hSERT receptor binding ([125I]-RTI-55 radioligand); settings: membranes of HEK-293 cells transfected with human serotonin transporter cDNA; 50 pM [125I]-RTI-55; IC50 converted by Cheng-Prusoff; read-out: SERT Ki
T2 construct: expressed in transfected cells; host or cells: HEK-293
T2 sequence (P31645 whole entry): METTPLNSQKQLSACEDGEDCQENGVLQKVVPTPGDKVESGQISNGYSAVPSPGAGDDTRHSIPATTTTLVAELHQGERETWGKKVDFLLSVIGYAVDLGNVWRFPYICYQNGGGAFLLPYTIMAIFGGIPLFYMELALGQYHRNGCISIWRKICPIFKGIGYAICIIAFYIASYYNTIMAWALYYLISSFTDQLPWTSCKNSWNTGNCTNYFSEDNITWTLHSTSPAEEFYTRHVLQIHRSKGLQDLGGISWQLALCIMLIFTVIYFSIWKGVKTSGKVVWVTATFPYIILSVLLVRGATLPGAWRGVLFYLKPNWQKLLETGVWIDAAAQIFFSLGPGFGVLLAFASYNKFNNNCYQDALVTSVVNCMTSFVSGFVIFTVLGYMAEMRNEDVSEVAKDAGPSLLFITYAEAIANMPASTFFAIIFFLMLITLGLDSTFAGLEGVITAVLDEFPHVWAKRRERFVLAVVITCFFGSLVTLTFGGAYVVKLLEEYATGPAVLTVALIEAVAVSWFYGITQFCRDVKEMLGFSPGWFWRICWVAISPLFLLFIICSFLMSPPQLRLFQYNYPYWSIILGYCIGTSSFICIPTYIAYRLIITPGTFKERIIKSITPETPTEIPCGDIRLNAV
Method: as §1, with “serotonin” for “norepinephrine”, “Setting” for “setting”, “(˜2.5” for “(5”
Assays were set up in FlashPlates pre-coated with 0.1% PEI in a total volume of 250 μl containing: test compound (10^−5M to 10^−12M), cell membranes, and 50 pM [^125I]-RTI-55 (Perkin Elmer, NEX-272; specific activity 2200 Ci/mmol). The reaction was incubated and gently agitated for 90 minutes at room temperature, and terminated by removal of assay volume. Plates were covered, and bound [^125I]-RTI-55 was determined using a Wallac Trilux Beta Plate Counter. Test compounds were run in duplicate, and specific binding was defined as the difference between binding in the presence and absence of 10 μM citalopram.
Excel and GraphPad Prism software were used for data calculation and analysis. IC50 values were converted to Ki values using the Cheng-Prusoff equation.

pKi [1] | pKi [2] | SMILES
≤ 5.00 | 5.52 | CCS(=O)(=O)c1ccc(-c2ccccc2CO[C@H]2CCNC2)cc1 [Example D-58, (S)-3-(4′-Ethanesulfonyl-biphenyl-2-ylmethoxy)-pyrrolidine]
7.83 | 6.52 | Fc1ccccc1-c1ccccc1CO[C@H]1CCNC1 [Example D-3, (S)-3-(2′-Fluoro-biphenyl-2-ylmethoxy)-pyrrolidine]
6.08 | 6.71 | CCOc1cccc(-c2ccc(F)cc2CO[C@H]2CCNC2)c1 [Example D-70, (S)-3-(3′-Ethoxy-4-fluoro-biphenyl-2-ylmethoxy)-pyrrolidine]
7.05 | 6.36 | Fc1ccccc1-c1ccccc1CO[C@@H]1CCNC1 [Example A-16, (R)-3-(2′-Fluoro-biphenyl-2-ylmethoxy)-pyrrolidine fumarate]
6.99 | 7.24 | Fc1ccc(-c2cccc(Cl)c2)c(CO[C@H]2CCNC2)c1 [Example D-108, (S)-3-(3′-Chloro-4-fluoro-biphenyl-2-ylmethoxy)-pyrrolidine]
7.85 | 6.63 | Fc1ccc(CO[C@H]2CCNC2)c(-c2cccc(F)c2F)c1 [Example A-24, (S)-(5,2′,3′-Trifluoro-biphenyl-2-ylmethoxy)-pyrrolidine hydrochloride]
6.22 | 6.98 | Fc1ccc(-c2cccc(C(F)(F)F)c2)c(CO[C@H]2CCNC2)c1 [Example D-75, (S)-3-(4-Fluoro-3′-trifluoromethyl-biphenyl-2-ylmethoxy)-pyrrolidine]
7.36 | 7.66 | Clc1cccc(-c2ccccc2CO[C@H]2CCNC2)c1 [Example D-13, (S)-3-(3′-Chloro-biphenyl-2-ylmethoxy)-pyrrolidine]
6.56 | 6.34 | Cc1ccccc1-c1ccccc1CO[C@H]1CCNC1 [Example D-26, (S)-3-(2′-Methyl-biphenyl-2-ylmethoxy)-pyrrolidine]
7.67 | 6.96 | Cc1ccc(-c2ccccc2CO[C@H]2CCNC2)cc1C [Example D-7, (S)-3-(3′,4′-Dimethyl-biphenyl-2-ylmethoxy)-pyrrolidine]
≤ 5.00 | 6.18 | CC(C)Oc1ccc(-c2ccccc2CO[C@H]2CCNC2)cc1 [Example D-56, (S)-(4′-Isopropoxy-biphenyl-2-ylmethoxy)-pyrroldine]
7.37 | 6.18 | Oc1ccc(-c2ccc(F)cc2CO[C@H]2CCNC2)cc1 [Example D-99, (S)-4′-Fluoro-2′-(pyrrolidine-3-yloxymethyl)-biphenyl-4-ol]
7.82 | 7.74 | Clc1ccc(-c2ccccc2CO[C@H]2CCNC2)cc1Cl [Example D-4, (S)-3-(3′,4′-Dichloro-biphenyl-2-ylmethoxy)-pyrrolidine]
6.47 | 5.95 | N#Cc1cccc(-c2cc(F)ccc2F)c1CO[C@H]1CCNC1 [Example E-1, (S)-2′,5′-Difluoro-2-(pyrrolidin-3-yloxymethyl)-biphenyl-3-carbonitrile fumarate]
5.31 | 5.75 | c1ccc(-c2ccncc2)c(CO[C@H]2CCNC2)c1 [Example A-28, (S)-4-[2-(Pyrrolidin-3-yloxymethyl)-phenyl]-pyridine hydrochloride]
≤ 5.00 | ≤ 5.00 | CCS(=O)(=O)c1ccc(-c2ccc(F)cc2CO[C@H]2CCNC2)cc1 [Example D-109, (S)-3-(4′-Ethanesulfonyl-4-fluoro-biphenyl-2-ylmethoxy)-pyrrolidine]
7.75 | 6.71 | CC(C)N(C(=O)c1ccccc1-c1ccccc1CO[C@H]1CCNC1)C(C)C [Example D-5, (S)-2′-(Pyrrolidin-3-yloxymethyl)-biphenyl-2-carboxylic acid diisopropylamide]
7.20 | 7.61 | Cc1cccc(-c2ccccc2CO[C@H]2CCNC2)c1 [Example D-16, (S)-3-(3′-Methyl-biphenyl-2-ylmethoxy)-pyrrolidine]
≤ 5.00 | ≤ 5.00 | N#Cc1ccccc1-c1ccccc1CO[C@H]1CCNC1 [Example D-52]
